Measurements taken from a melting point compilation (Tetko et al.; mined from patent text by program, amines drawn as free bases though some values may be those of a salt).

With `Cc1c(C)c(N2CCN(c3ccc(F)cc3)CC2)c(C)c2c1OC(C)C2` (configuration not stated) as the molecule, how does the melting point read?
The melting point was 137 to 138 °C.

For `O=C1CCCCCC1=CC(=O)c1ccccc1`, which melting point is on record?
Its melting point is 91 to 92 °C.

Which melting point does the source give for `CCOC(=O)C1=C(CCl)NC(C)=C(C(=O)OC)C1c1cccc(C(F)(F)F)c1` (configuration not stated) here?
Its melting point is 115 to 116 °C.

For `O=C(O)CC1(C(=O)OCc2ccccc2)C(=O)N(Cc2ccc(Cl)c(Cl)c2)C(=O)c2cccn21` (configuration not stated), which melting point is on record?
The melting point was 134 to 136 °C.

For `O=C(Nc1cccnc1)N1CCc2cc(Cl)c(Cl)cc21`, which melting point is on record?
The melting point was 236 to 238 °C.

For `Cc1oc(-c2ccccc2)nc1COc1ccc(CCCC2OC(=O)NC2=O)cc1OC(C)C` (configuration not stated), which melting point is on record?
Its melting point is 120 to 121 °C.

Which melting point does the source give for `Cc1oc(-c2ccc(C(F)(F)F)cc2)nc1CCOc1ccc(CN(O)C(N)=O)cc1F` here?
Its melting point is 144 to 146 °C.

Which melting point does the source give for `CC(C)n1nc(-c2ccc(N)nc2-c2ccccc2)ccc1=O` here?
Its melting point is 167 to 171 °C.

Which melting point does the source give for `COc1cc(OC)nc(OC(C(=O)O)C(C)(Oc2ccccc2)c2ccccc2)n1` (configuration not stated) here?
Its melting point is 50 to 55 °C.

With `OCc1ccc2cc(O)ccc2c1` as the molecule, how does the melting point read?
Its melting point is 179 to 181 °C.

Which melting point does the source give for `CC(C)C1(C)N=C(c2ccc(C(C)(C)O)cn2)NC1=O` (configuration not stated) here?
The melting point was 166 to 168 °C.

With `O=c1[nH]c2cc(Cl)ccc2n(O)c1=O` as the molecule, how does the melting point read?
Its melting point is > 300 °C.

Which melting point does the source give for `CCCCc1ccc(Cn2cc(C3c4ccccc4C=Cc4ccccc43)c(=S)[nH]c2=O)cc1C(=O)O` here?
The melting point was 230 °C.

For `Cc1ccc(C(=O)Nc2c(NC(=O)CN3CCN(CCO)CC3)ccc3c2C(=O)c2ccccc2C3=O)cc1`, which melting point is on record?
Its melting point is 210 to 211 °C.

With `CCN1C(=O)CCCc2ccc(Nc3ncc(Br)c(Nc4c(F)cccc4C(=O)NC)n3)cc21` as the molecule, how does the melting point read?
The melting point was 231 to 232 °C.

For `CN1Cc2c(-c3nc(CCl)co3)ncn2-c2cccc(Cl)c2C1=O`, which melting point is on record?
The melting point was 249 to 251 °C.

Which melting point does the source give for `CS(=O)(=O)c1ccc(-n2cncc2-c2ccc(Cl)nc2)cc1` here?
Its melting point is 191 to 192 °C.

Which melting point does the source give for `COc1ccc(C(=O)Nc2ccc(F)c(F)c2)cc1NCc1ccc(C(=O)O)cc1` here?
The melting point was > 240 °C.

For `CCC(=O)C1C(=O)CC(C#N)CC1=O` (configuration not stated), which melting point is on record?
The melting point was 70 to 74 °C.

Which melting point does the source give for `CC(C(O)c1ccccc1)n1nnc2cc3c(cc2c1=O)OC1CCCN1C3=O` (configuration not stated) here?
Its melting point is 235 to 238 °C.

For `CSc1nc(Cl)c(-c2ccc(C)cc2)c(Cl)n1`, which melting point is on record?
The melting point was 74 to 78 °C.

For `Cc1c(O)c(C)c(CS)c(C)c1CS`, which melting point is on record?
The melting point was 159 °C.

For `CC(C)C(=O)Oc1cc(-c2cn3c(n2)sc2ccccc23)cc([N+](=O)[O-])c1OC(=O)C(C)C`, which melting point is on record?
Its melting point is 197 to 199 °C.

Which melting point does the source give for `CN(C)c1cc(-c2c[nH]cn2)ccn1` here?
The melting point was 173 to 174 °C.

With `CCCCCCCCCCC=CCc1c[nH]c(C(=O)NN)c1` as the molecule, how does the melting point read?
Its melting point is 130 to 132 °C.

With `COC(=O)c1ccc(O)c(C2CCCC2)c1` as the molecule, how does the melting point read?
The melting point was 114 to 116 °C.

For `CCOCCC(=Nc1ccc(Cl)cc1C(F)(F)F)n1ccnc1`, which melting point is on record?
The melting point was 61 to 62 °C.

Which melting point does the source give for `COc1ccc(C(=O)c2c(-c3ccccc3)sc3ccccc23)cc1` here?
Its melting point is 107 to 109 °C.

Which melting point does the source give for `O=C1OC(CCc2ccccc2)(c2ccccc2)CC(O)=C1SCc1cccc2ccccc12` (configuration not stated) here?
Its melting point is 132 to 134 °C.

With `CCCCOc1c(N(C)C(=O)OC(C)(C)C)n(CC2CC2)c(=O)c2ccc(OCC(N)=O)cc12` as the molecule, how does the melting point read?
Its melting point is 209 to 210 °C.

With `Cc1cccc2c(=O)n([C@H](C)[C@](O)(Cn3cncn3)c3ccc(F)cc3F)cnc12` as the molecule, how does the melting point read?
Its melting point is 141 to 144 °C.

For `COc1cc(C)c2ccc(=O)[nH]c2n1`, which melting point is on record?
Its melting point is 214 to 216 °C.

With `N#Cc1cnc2c(c1)[nH]c(=O)n2[C@H]1CC[C@H](O)CC1` as the molecule, how does the melting point read?
The melting point was 274 to 275 °C.

With `CN1CC(=O)Nc2ncccc2C1=O` as the molecule, how does the melting point read?
Its melting point is 245 to 247 °C.

Which melting point does the source give for `CC(C)(O)CC1c2ccccc2C(=O)N1CC(=O)O` (configuration not stated) here?
The melting point was 198 to 199 °C.

With `Cc1cc(-c2ccc(Cl)cc2)n(-c2ccc(S(N)(=O)=O)cc2)c1` as the molecule, how does the melting point read?
Its melting point is 196 to 198 °C.

For `CSc1nc2cc3c(cc2[nH]1)NC(=O)C3(C)C`, which melting point is on record?
Its melting point is 248 to 250 °C.

Which melting point does the source give for `CCc1nc2c(cnn2CC)c(NC2CCOCC2)c1CNC(=O)c1cccc(C(=O)NCc2cc(Cl)cc(-c3cccc(CN4CCCN(C)CC4)c3)c2)c1` here?
Its melting point is 111 to 113 °C.

For `O=[N+]([O-])c1ccc(OCc2ccc(F)cc2)cc1`, which melting point is on record?
The melting point was 124 to 126 °C.

Which melting point does the source give for `COC(=O)CN(C)c1nc(-c2ccc(Br)cc2)c(C=O)s1` here?
Its melting point is 105 to 106 °C.

With `C=C(C(=O)O)c1ccc(-c2ccccc2)c(F)c1` as the molecule, how does the melting point read?
Its melting point is 169 to 172 °C.

With `CN(C)C(=O)Nc1ccc(SCCc2ccccc2)c(Cl)c1` as the molecule, how does the melting point read?
Its melting point is 133 to 134 °C.

With `COC(=O)Cc1c(Cl)cc(C(=O)c2ccc(C)cc2)n1C` as the molecule, how does the melting point read?
Its melting point is 144 to 146 °C.

With `O=C1NCCCN1C1(CO)CCNCC1` as the molecule, how does the melting point read?
Its melting point is 162 °C.

With `CC(C)n1c(=O)n(C(=O)NC2CCN(C)CC2)c2ccccc21` as the molecule, how does the melting point read?
The melting point was 204 to 205 °C.

With `N#Cc1ccc(COc2cccc(F)c2)cc1` as the molecule, how does the melting point read?
The melting point was 69 to 70 °C.

Which melting point does the source give for `Cc1c(C(F)(F)F)[nH]c(=O)n(-c2ccc(Br)cc2F)c1=O` here?
Its melting point is 188 to 189 °C.

For `O=C(Nc1ccc(Cl)cc1)c1cccc(/C=C/c2ccccn2)c1`, which melting point is on record?
Its melting point is 213 °C.

For `O=S1N=C(NCCCN(Cc2cccs2)c2ccccn2)C(NCc2ccncc2)=N1` (configuration not stated), which melting point is on record?
Its melting point is 129 to 130 °C.

For `COc1ccc(CC2Cc3cccc(-c4cccc(C(=O)NCCN5CCCC5)c4)c3O2)cc1OC` (configuration not stated), which melting point is on record?
Its melting point is 134 to 135 °C.

For `N#Cc1cnc(Nc2ccc(OCCn3ccnn3)cc2)nc1-c1ccccc1`, which melting point is on record?
The melting point was 178 °C.

With `O=c1oc2ccccc2c(O)c1C1CC(c2ccc(Oc3ccc(-c4ccccc4)cc3)cc2)Cc2ccccc21` (configuration not stated) as the molecule, how does the melting point read?
Its melting point is 124 to 127 °C.

With `O=C1N(Cc2ccc(C(F)(F)F)o2)c2cccc(Br)c2C12COc1cc3c(cc12)CCO3` (configuration not stated) as the molecule, how does the melting point read?
The melting point was 165 to 167 °C.

With `O=P(c1ccccc1)(c1ccc(F)cc1)c1ccc(F)cc1` as the molecule, how does the melting point read?
The melting point was 103 to 105 °C.

Which melting point does the source give for `NC(=O)c1cc(N)ccc1SSc1ccc(N)cc1C(N)=O` here?
Its melting point is 188 to 190 °C.

For `OCC(CO)(COCc1ccccc1)COCc1ccccc1`, which melting point is on record?
Its melting point is 73 °C.

For `COC(=O)c1ccccc1C1=NC(C)(C(C)C)C(=S)N1` (configuration not stated), which melting point is on record?
Its melting point is 134 to 138 °C.

With `CCc1nc2c(N)nc3cc(OCCN(C(N)=O)C(C)C)ccc3c2n1CC1CCOCC1` as the molecule, how does the melting point read?
Its melting point is 223 to 225 °C.

With `CN(c1cc(N2C(=O)C3CC(Cl)CN3C2=O)c(F)cc1Cl)S(=O)(=O)CCl` (configuration not stated) as the molecule, how does the melting point read?
Its melting point is 119 to 124 °C.

With `O=C(O)c1ccc(-c2nc(-c3ccncc3)cs2)cc1` as the molecule, how does the melting point read?
The melting point was > 300 °C.

Which melting point does the source give for `Nc1nc(-c2ccccc2OCC(F)(F)F)[nH]c(=O)c1N=O` here?
The melting point was 210 to 212 °C.

Which melting point does the source give for `O=C(Nc1ccccc1)c1nc(-c2ccc(Cl)cc2Cl)c(-c2ccc(Cl)cc2)s1` here?
Its melting point is 167 to 168 °C.

Which melting point does the source give for `CC(=O)c1ccc(OC(C)c2ccnc3ncnn23)cc1` (configuration not stated) here?
The melting point was 136 to 138 °C.

Which melting point does the source give for `CC(C)(OCc1cc2cc(Cl)ccc2n1S(=O)(=O)c1ccc2c(c1)OCCO2)C(=O)O` here?
The melting point was 156 to 158 °C.

Which melting point does the source give for `CC(=O)N[C@H](CC(N)=O)C(=O)Nc1ccc(-c2ccc(C(=O)O)c(=O)[nH]2)cc1` here?
Its melting point is 265 to 266 °C.

Which melting point does the source give for `CC12CCC(=O)C=C1CCC1C3CC(OCCOC4CCCCO4)C(O)(C(=O)CO)C3(C)CC(O)C12F` (configuration not stated) here?
The melting point was 196 to 200 °C.

With `COC(=O)c1cc2ccncc2c2sc3ccccc3c12` as the molecule, how does the melting point read?
Its melting point is 174 to 176 °C.

Which melting point does the source give for `COc1ccc2c(C3OC(=O)NC3=O)c(OC)ccc2c1` (configuration not stated) here?
Its melting point is 175 to 180 °C.

Which melting point does the source give for `COc1cc2c(c3c1OC(C)(C)C3)C(c1cccc(-c3cncnc3)c1)=NC(C)(C)C2` here?
The melting point was 141 to 143 °C.

With `CCOC(=O)C(=Nc1ccc(OC)cc1)c1cccn1C` as the molecule, how does the melting point read?
The melting point was 83 to 85 °C.

For `CCOC(=O)C(=CNC1CC1)C(=O)c1ccc(F)c(Cl)c1F`, which melting point is on record?
The melting point was 101 to 104 °C.

With `c1ccc(Oc2ccc(NC3=NN(c4ccccc4)CC3)cc2)cc1` as the molecule, how does the melting point read?
Its melting point is 114 to 116 °C.
